Laboratory results: US12552783B2, “Modulators of proteolysis and associated methods of use” (Arvinas Operations, Inc., priority 2018, dated 2026)

Target: KRas (Homo sapiens, UniProt P01116, G12C)
Assay: KRas degradation in SW1573 cells by Western blot, normalized to GAPDH (data of Table 14)
Format: cell-based
Settings: SW1573 cells
How it was run: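 SW1573 cells, homozygous for the KRas G12C mutation and maintained in DMEM with 10% FBS and 1% penicillin-streptomycin, were seeded in 12-well plates, allowed to attach overnight at 37° C. under 5% CO2, then serum-starved for 24 hours before compound exposure. KRas levels were measured by Western blot, normalized to GAPDH, and compared with DMSO controls to give percent degradation, DC50 and Dmax.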

Measured: Percent Degradation at Indicated Concentration (μM)

C=CC(=O)N1CCN(c2nc(O[C@H](C)CN3CCC(OCCOCCOCCOc4cc([C@@H](C(=O)N5C[C@H](O)C[C@H]5C(=O)N[C@@H](C)c5ccc(-c6scnc6C)cc5)C(C)C)on4)CC3)nc3c(F)c(-c4cc(O)cc5ccccc45)c(Cl)cc23)CC1 [compound 528, (2S,4R)-1-((2S)-2-(3-(2-(2-(2-((1-((2R)-2-((4-(4-acryloylpiperazin-1-yl)-6-chloro-8-fluoro-7-(3-hydroxynaphthalen-1-yl)quinazolin-2-yl)oxy)propyl)piperidin-4-yl)oxy)ethoxy)ethoxy)ethoxy)isoxazol-5-yl)-3-methylbutanoyl)-4-hydroxy-N-((S)-1-(4-(4-methylthiazol-5-yl)phenyl)ethyl)pyrrolidine-2-carboxamide]
C (Percent Degradation: C ≤ 35): 0.03 μM | 0.1 μM | 0.3 μM

C=CC(=O)N1CCN(c2nc(O[C@H](C)CN3CCC(OCCOCCOCCOc4cc([C@H](C(=O)N5C[C@H](O)C[C@H]5C(=O)N[C@@H](C)c5ccc(-c6scnc6C)cc5)C(C)C)on4)CC3)nc3c(F)c(-c4cc(O)cc5ccccc45)c(Cl)cc23)CC1 [compound 529, (2S,4R)-1-((2R)-2-(3-(2-(2-(2-((1-((2R)-2-((4-(4-acryloylpiperazin-1-yl)-6-chloro-8-fluoro-7-(3-hydroxynaphthalen-1-yl)quinazolin-2-yl)oxy)propyl)piperidin-4-yl)oxy)ethoxy)ethoxy)ethoxy)isoxazol-5-yl)-3-methylbutanoyl)-4-hydroxy-N-((S)-1-(4-(4-methylthiazol-5-yl)phenyl)ethyl)pyrrolidine-2-carboxamide]
C (Percent Degradation: C ≤ 35): 0.03 μM | 0.1 μM | 0.3 μM

C=CC(=O)N1CCN(c2nc(O[C@H](C)CN3CCC(OCCOCCOCCOCCOc4cc([C@H](C(=O)N5C[C@H](O)C[C@H]5C(=O)N[C@@H](C)c5ccc(-c6scnc6C)cc5)C(C)C)on4)CC3)nc3c(F)c(-c4cc(O)cc5ccccc45)c(Cl)cc23)CC1 [compound 530, (2S,4R)-1-((2R)-2-(3-(2-(2-(2-(2-((1-((2R)-2-((4-(4-acryloylpiperazin-1-yl)-6-chloro-8-fluoro-7-(3-hydroxynaphthalen-1-yl)quinazolin-2-yl)oxy)propyl)piperidin-4-yl)oxy)ethoxy)ethoxy)ethoxy)ethoxy)isoxazol-5-yl)-3-methylbutanoyl)-4-hydroxy-N-((S)-1-(4-(4-methylthiazol-5-yl)phenyl)ethyl)pyrrolidine-2-carboxamide]
C (Percent Degradation: C ≤ 35): 0.03 μM | 0.1 μM | 0.3 μM

C=CC(=O)N1CCN(c2nc(O[C@H](C)CN3CCC(OCCOCCOCCOCCOc4cc([C@@H](C(=O)N5C[C@H](O)C[C@H]5C(=O)N[C@@H](C)c5ccc(-c6scnc6C)cc5)C(C)C)on4)CC3)nc3c(F)c(-c4cc(O)cc5ccccc45)c(Cl)cc23)CC1 [compound 531, (2S,4R)-1-((2S)-2-(3-(2-(2-(2-(2-((1-((2R)-2-((4-(4-acryloylpiperazin-1-yl)-6-chloro-8-fluoro-7-(3-hydroxynaphthalen-1-yl)quinazolin-2-yl)oxy)propyl)piperidin-4-yl)oxy)ethoxy)ethoxy)ethoxy)ethoxy)isoxazol-5-yl)-3-methylbutanoyl)-4-hydroxy-N-((S)-1-(4-(4-methylthiazol-5-yl)phenyl)ethyl)pyrrolidine-2-carboxamide]
C (Percent Degradation: C ≤ 35): 0.03 μM | 0.1 μM | 0.3 μM
